In patent US20180250295A1, “Treatment of Motor and Movement Disorder Side Effects Associated with Parkinson's Disease Treatments” (Psychogenics, Inc., priority 2012, published 2018):

Tests used:
5-HT1b receptor = 5-HT1b receptor (Homo sapiens, UniProt P28222); details: relative to 5-HT1a; cited from earlier work
[1] = system: Parkinson's patients with L-DOPA induced dyskinesias; test: Safety and tolerability of eltoprazine in the levodopa challenge-dose study; format: in vivo, human; details: single oral doses of 2.5 mg, 5 mg, 7.5 mg
Excerpt: (§1) This example describes a multicenter, randomized, double-blind, placebo-controlled, dose finding study of oral eltoprazine in Parkinson's patients with L-DOPA induced dyskinesias, in a levodopa challenge-dose setting in Parkinson's Disease. A total of 22 patients participated in the study, out of which 18 patients fulfilled the protocol in terms of eligibility, interventions, and outcome assessment. […]

[2] = system: Parkinson's patients with L-DOPA induced dyskinesias; test: Levodopa challenge-dose study of oral eltoprazine, dyskinesia ratings (CDRS, Rush DRS); format: in vivo, human; details: for levodopa-induced dyskinesia (LID) measured by the CDRS scale: compared to placebo
Excerpt: This example describes a multicenter, randomized, double-blind, placebo-controlled, dose finding study of oral eltoprazine in Parkinson's patients with L-DOPA induced dyskinesias, in a levodopa challenge-dose setting in Parkinson's Disease. A total of 22 patients participated in the study, out of which 18 patients fulfilled the protocol in terms of eligibility, interventions, and outcome assessment.
This study also assessed the safety and tolerability of eltoprazine in adults with Parkinson's Disease using the following measures: a) population mean values for the change in dyskinesia ratings between the placebo and screening baseline values and any of the eltoprazine dosages used, calculated as the peak-effect on CDRS of any study medication; b) population mean values for the change in dyskinesia ratings between the placebo and screening baseline values and any of the eltoprazine dosages used, calculated as the AuC on Rush DRS of any study medication; c) any changes in the UPDRS-III total score; d) any change in the diary data set, between the baseline and placebo and any of the three study medication tests; e) any deterioration of the HADS scores after study medication compared with placebo; f) any development of depression over the course of the study period, determined by the Montgomery Asberg Depression Rating Scale (MADRS) and clinical judgment; g) comparison between the effects on Rush Dyskinesia Rating Scale (DRS) and Clinical Dyskinesia Rating Scale (CDRS) Area under the Curve (AuC) and peak of dose effects for the three study medication dosages.
During the first visit, patients underwent screening for inclusion/exclusion criteria and safety assessments. Symptoms of parkinsonism, depression, and anxiety were assessed, and screening for significant L-DOPA dyskinesias were conducted using a challenge dose (150%) of L-DOPA. Subjects who were taking a prohibited medication were required to complete a washout period of appropriate length, as determined by the investigator. […]

5-HT1d receptor = details: compared with serotonin; cited from earlier work
dopamine receptors = details: cited from earlier work
5-HT1 = details: with respect to all receptors other than 5-HT1; cited from earlier work
[3] = system: Parkinson's patients with L-DOPA induced dyskinesias; test: Levodopa challenge-dose study, UPDRS-III rating of parkinsonian symptoms (L-DOPA efficacy); format: in vivo, human
Excerpt: as §1
During each of five visits, and after a two-hour fast, each patient received a challenge dosage (150%—up to a maximum of 250 mg) of levodopa. […] The patients were periodically recorded for 180 minutes after treatment, and the videos were evaluated in a blinded manner. […]
Filming occurred 30 minutes prior to, and every 30 minutes up to 180 minutes after a challenge test of L-DOPA and study medication. […] Video taped records of each sequence were assessed by separate individual qualified raters at both of the two clinical centers.
Analyses were done on both the intention-to-treat (ITT) and per protocol (PP) population, if applicable. The change between test sessions of the highest observed Unified Parkinson's Disease Rating Scale-III (UPDRS) within each session will be calculated between the randomised placebo test session and each active test session and will be analysed with Wilcoxon Signed Rank test on the ITT population.

5-HT1a receptor = biological target: T1, 5-HT1a receptor (Homo sapiens, UniProt P08908); details: relative to 5-HT1b; cited from earlier work
T1 sequence (P08908 1-422): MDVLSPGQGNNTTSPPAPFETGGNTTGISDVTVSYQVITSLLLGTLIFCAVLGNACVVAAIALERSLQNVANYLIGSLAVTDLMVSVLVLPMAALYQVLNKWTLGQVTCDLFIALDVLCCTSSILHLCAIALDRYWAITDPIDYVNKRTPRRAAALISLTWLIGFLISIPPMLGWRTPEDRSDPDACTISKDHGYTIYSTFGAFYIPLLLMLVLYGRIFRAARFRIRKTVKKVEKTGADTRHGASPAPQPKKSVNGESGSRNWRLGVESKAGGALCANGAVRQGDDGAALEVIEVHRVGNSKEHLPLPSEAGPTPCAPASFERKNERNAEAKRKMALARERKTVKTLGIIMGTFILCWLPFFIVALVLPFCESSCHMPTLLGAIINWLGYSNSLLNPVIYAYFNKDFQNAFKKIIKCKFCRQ

Sequence of 5-HT1b receptor (P28222 whole entry): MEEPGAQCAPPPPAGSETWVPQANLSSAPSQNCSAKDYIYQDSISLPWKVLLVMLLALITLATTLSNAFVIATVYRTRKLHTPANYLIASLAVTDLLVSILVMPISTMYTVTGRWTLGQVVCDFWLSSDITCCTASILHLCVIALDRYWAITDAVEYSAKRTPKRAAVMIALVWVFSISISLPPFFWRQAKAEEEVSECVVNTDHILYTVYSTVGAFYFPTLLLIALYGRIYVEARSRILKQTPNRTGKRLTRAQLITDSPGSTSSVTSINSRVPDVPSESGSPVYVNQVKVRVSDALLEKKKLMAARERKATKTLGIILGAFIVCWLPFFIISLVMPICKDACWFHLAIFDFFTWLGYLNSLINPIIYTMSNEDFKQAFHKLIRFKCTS

Compound: c1cc2c(c(N3CCNCC3)c1)OCCO2 [eltoprazine, 1-(2,3-dihydro-1,4-benzodioxanyl-5-yl) piperazine]
- agonism and affinity at the 5-HT1b receptor (5-HT1b receptor): mixed 5-HT1a/5-HT1b receptor agonist with roughly equipotent affinity
- serious adverse events [1]: no serious adverse events
- tolerability [1]: well tolerated
- LID as measured by the Rush Scale AUC ([2]; 5 mg single oral dose): reduced LID in PD patients statistically significantly
- levodopa-induced dyskinesia (LID) measured by the CDRS scale ([2]; 5 mg single oral dose, p=0.0007, L-DOPA challenge dose 150%): statistically significantly reduced LID
- levodopa-induced dyskinesia (LID) measured by the CDRS scale ([2]; 7.5 mg single oral dose, p=0.0467, L-DOPA challenge dose 150%): statistically significantly reduced LID
- affinity for the 5-HT1d receptor (5-HT1d receptor): lower affinity for the 5-HT1d receptor
- affinity for dopamine receptors (dopamine receptors): no relevant affinity for dopamine receptors
- binding selectivity (5-HT1): selective 5-HT1 ligand
- L-DOPA efficacy as measured by the UPDRS score ([3]; 5 mg and 7.5 mg doses): did not affect L-DOPA efficacy
- change in UPDRS-III of parkinsonian symptoms after eltoprazine administration ([3]; FIG. 2): no significant change
- agonism and affinity at the 5-HT1a receptor (5-HT1a receptor): mixed 5-HT1a/5-HT1b receptor agonist with roughly equipotent affinity
